{
  "source": "patent US4866052A",
  "about": "“Treatment of sickle cell disease” (National Research Development Corporation, priority 1986, dated 1989)",
  "key": {"Normal erythrocytes": {"system": "Normal erythrocytes", "assay": "Oxygen dissociation curve / oxygen affinity, normal erythrocytes", "format": "cell-based, human", "experimental": "(§1) (1) A 50% suspension of human erythrocytes in pH 7.09 8BisTris/NaCl buffer005M BisTris(bis(2-hydroxyethyl)imino-tris(hydroxymethyl)methane and 0.13M NaCl was incubated for 15 minutes at 37° C. with the 2:1 zinc(II) complex of 2-ethyl-3-hydroxy-4-pyrone in the presence of an excess of the ligand-forming compound, the complex being formed in situ using zinc sulphate and a 10 molar excess of 2-ethyl-3-hydroxy-4-pyrone (to provide the 2:1 complex and an 8 molar excess of the pyrone). The oxygen dissociation curve of the erythrocytes was then determined using the method of Bellingham and Huehns (Nature, -968, 218, 924-926) which involves measuring the change of OD at two wavelengths (570 and 555 nm) after the sequential measured addition of oxygen in a tanometer. The experiment was conducted using normal erythrocytes, 2,3-diphosphoglyceric acid (DPG) depleted erythrocytes, foetal erythocytes and sickle erythrocytes. A 2.5 mM concentration of zinc was employed in each case together with a proportion of erythrocytes such as to provide a 2:1 ratio of zinc:haemoglobin and consequent saturation of the haemoglobin by zinc, except in one experiment where the proportion was varied to provide a ratio varying from 0.5:1 to 2:1. In each case a control was carried out in the absence of any zinc sulphate or 2-ethyl-3-hydroxy-4-pyrone and in one case two additional controls were carried out in the presence of one of these compounds used alone. The values for p(O2)50 (i.e. the oxygen pressure at which 50% of the haemoglobin is in the oxygenated form) obtained in each case are shown in Table 2 (together with the inferred Zn:Hb ratio) from which it will be seen that the oxygen affinity of normal erythrocytes, and also of sickle erythrocytes, is increased through treatment of the cells with zinc(II) (2-ethyl-3-hydroxy-4-pyrone)2. Foetal erythrocytes, which contain Hb-F and therefore show different characteristics from normal eythrocytes which contain Hb-A, were as expected not affected. […] With sickle erythrocytes the effect is even more marked as is further illustrated in (2) below.\n(§2) (2) The effect of the 2:1 2-ethyl-3-hydroxy-4-pyrone:zinc(II) complex on normal and sickle erythrocytes was further compared using a basically similar procedure to that described in (-) above. Concentrations of 2.5 mM ZnSO4 and 25 mM pyrone, and a 2:1 Zn:Hb ratio were again used but the incubation period was extended to 1 hour. In each case a control experiment was carried out in the absence of any zinc sulphate or pyrone.\n(3) The effect of different concentrations of the 2:1 2-ethyl-3-hydroxy-4-pyrone:zinc(II) complex upon normal erythrocytes was studied using a basically similar procedure to that described in (l) above but with ZnSO4 concentrations of 0.1, 1 and 10 mM (and ten times these concentrations of the pyrone) and extending the incubation period to 1 hour. A control experiment was carried out in the absence of any zinc sulphate or pyrone."}, "haemoglobin [1]": {"target": "T1, haemoglobin (Homo sapiens, UniProt P68871+P69905)", "T1 construct": "A 5% suspension of human erythrocytes in aqueous sodium chloride; endogenous in cells; host or cells: human erythrocytes (intact, 5% suspension)", "T1 sequence (P69905 2-142 limits assumed)": "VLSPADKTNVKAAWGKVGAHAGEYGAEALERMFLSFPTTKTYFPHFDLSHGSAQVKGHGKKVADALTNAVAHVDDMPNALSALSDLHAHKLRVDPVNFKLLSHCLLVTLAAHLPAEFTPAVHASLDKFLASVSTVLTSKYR", "T1 sequence (P68871 2-147 limits assumed)": "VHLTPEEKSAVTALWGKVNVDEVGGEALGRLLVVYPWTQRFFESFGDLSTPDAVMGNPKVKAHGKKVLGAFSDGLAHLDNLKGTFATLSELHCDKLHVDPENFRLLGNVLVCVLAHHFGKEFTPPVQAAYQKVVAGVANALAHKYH", "assay": "Uptake of 65Zn from 2:1 zinc(II) complexes by haemoglobin in human erythrocytes", "format": "cell-based", "details": "2:1 zinc complex 5 x 10^-4M with excess ligand, 1 hour, 37° C., pH 7.4, human erythrocytes", "experimental": "(§3) Uptake of zinc from complexes by haemoglobin (1) A 5% suspension of human erythrocytes in aqueous sodium chloride (b 130 mM) buffered to pH 7.4 by 20 mM Tris hydrochloride (2 ml) was incubated for 1 hour at 37° C. with the 2:1 zinc(II) complex in the presence of an excess of the ligand-forming compound. The complex was formed in situ in the buffer using ^65 Zn labelled ZnSO4 at a concentration selected over a range from 1×10^-6 to 4×10^-3 M compound at ten times this concentration and a small amount of Tris free base (to about 2 mM) added to the medium to avoid an acid pH on reaction of the ZnSO4 and the compound to form the complex. Following the period of incubation, an aliquot of the erythrocyte/medium mixture was placed above a layer of silicone oil and the erythrocytes separated by […] centrifugation through the oil. The ^65 Zn levels associated with the erythrocytes and the incubation medium were then counted and the distribution ratio (concentration in erythrocytes/concentration in medium) calculated. The average distribution ratios of zinc obtained in a series of experiments for the homogeneous 2:1 complex from the ligand-providing compounds 3-hydroxy-2methyl-4-pyrone, 2-ethyl-3-hydroxy-4-pyrone and 3-hydroxy-2-(1'-methylethyl)-4-pyrone at a concentration of 5 x 10^-4M are shown in Table 1 together with the percentage of the total amount of zinc which is absorbed in the erythrocytes."}, "Foetal erythrocytes": {"system": "Foetal erythrocytes", "assay": "Oxygen dissociation curve / oxygen affinity, foetal erythrocytes", "format": "cell-based, human", "experimental": "(§4) (1) A 50% suspension of human erythrocytes in pH 7.09 8BisTris/NaCl buffer005M BisTris(bis(2-hydroxyethyl)imino-tris(hydroxymethyl)methane and 0.13M NaCl was incubated for 15 minutes at 37° C. with the 2:1 zinc(II) complex of 2-ethyl-3-hydroxy-4-pyrone in the presence of an excess of the ligand-forming compound, the complex being formed in situ using zinc sulphate and a 10 molar excess of 2-ethyl-3-hydroxy-4-pyrone (to provide the 2:1 complex and an 8 molar excess of the pyrone). The oxygen dissociation curve of the erythrocytes was then determined using the method of Bellingham and Huehns (Nature, -968, 218, 924-926) which involves measuring the change of OD at two wavelengths (570 and 555 nm) after the sequential measured addition of oxygen in a tanometer. The experiment was conducted using normal erythrocytes, 2,3-diphosphoglyceric acid (DPG) depleted erythrocytes, foetal erythocytes and sickle erythrocytes. A 2.5 mM concentration of zinc was employed in each case together with a proportion of erythrocytes such as to provide a 2:1 ratio of zinc:haemoglobin and consequent saturation of the haemoglobin by zinc, except in one experiment where the proportion was varied to provide a ratio varying from 0.5:1 to 2:1. […]"}, "erythrocyte ghosts": {"system": "erythrocyte ghosts", "assay": "Uptake of 65Zn by erythrocyte ghosts lacking haemoglobin", "format": "cell-based, human", "details": "2.5 mM 65ZnSO4 and 25 mM 2-ethyl-3-hydroxy-4-pyrone", "experimental": "as §3, with “The average distribution ratios of zinc obtained in a series of experiments for the homogeneous 2:1 complex from the ligand-providing compounds 3-hydroxy-2methyl-4-pyrone, 2-ethyl-3-hydroxy-4-pyrone and 3-hydroxy-2-(1'-methylethyl)-4-pyrone at a concentration of 5 x 10^-4M are shown in Table 1 together with the percentage of the total amount of zinc which is absorbed in the erythrocytes.” left out"}, "[2]": {"system": "DPG depleted erythrocytes", "assay": "Oxygen dissociation curve / oxygen affinity, DPG depleted erythrocytes", "format": "cell-based, human", "details": "2.5 mM ZnSO4 + 25 mM pyrone, Zn:Hb 2:1; control 15.75", "experimental": "as §4"}, "haemoglobin [3]": {"system": "haemoglobin", "assay": "Donation of zinc to haemoglobin, elution profile of 65Zn label on PD-10 column", "format": "binding", "experimental": "There was no evidence of any saturation of the rate of uptake over the concentration range studied so that the complex is not actively transported and, in order to account for the high distribution ratios observed, the zinc must therefore dissociate from the complex and bind to a macromolecule or membrane associated with the erythrocyte. The experiment just described was repeated at a concentration of 2.5 mM ^65 ZnSO4 and 25 mM 2-ethyl-3-hydroxy-4-pyrone using erythrocyte ghosts in which the haemoglobin is lacking rather than whole erythrocytes. […] (2) The ability of the zinc(II) complex of 2-ethyl-3-hydroxy-4-pyrone to donate zinc to haemoglobin was investigated by [j studying the elution profile of the ^65 Zn label when a mixture of haemoglobin and the ^65 Zn-labelled complex (at 1 mM concentration)in NaCI (130 mM) buffered to pH 7.4 by Tris hydrochloride is applied to a PD-10 colum (Sephadex […] gel permeation column - Pharmacia)."}, "Sickle erythrocytes": {"system": "Sickle erythrocytes", "assay": "Oxygen dissociation curve / oxygen affinity, sickle erythrocytes", "format": "cell-based, human", "experimental": "as §1, §2"}},
  "data": [
    {"smiles": "O=S(=O)([O-])[O-].[Zn+2]", "note": "[ZnSO4, zinc sulphate, reference compound]", "values": [
      {"measurement": "P(O2)50", "setting": "Normal erythrocytes; 2.5 mM ZnSO4 alone, Zn:Hb 2:1, control 26", "result": 24.5, "unit": "mmHg"}
    ]},
    {"smiles": "CCc1occc(=O)c1O", "note": "[pyrone, 2-ethyl-3-hydroxy-4-pyrone, reference compound]", "values": [
      {"measurement": "P(O2)50", "setting": "Normal erythrocytes; 2.5 mM pyrone alone, Zn:Hb 0:1, control 26", "result": 28, "unit": "mmHg"}
    ]},
    {"smiles": "CCc1occc(=O)c1[O-].CCc1occc(=O)c1[O-].[Zn+2]", "note": "[zinc(II) (2-ethyl-3-hydroxy-4-pyrone)2]", "values": [
      {"measurement": "Distribution ratio (concentration in erythrocytes/concentration in medium)", "setting": "haemoglobin [1]", "result": 300},
      {"measurement": "Percentage of zinc absorbed", "setting": "haemoglobin [1]", "result": 96, "unit": "%"},
      {"measurement": "P(O2)50", "setting": "Foetal erythrocytes; 2.5 mM ZnSO4 + 25 mM pyrone, Zn:Hb 0:1 (assumed no uptake by HbF), control 22", "result": 24, "unit": "mmHg"},
      {"measurement": "oxygen affinity (in words)", "setting": "Foetal erythrocytes; foetal erythrocytes, 2.5 mM zinc, 15 minutes", "result": "not affected"},
      {"measurement": "uptake of zinc by erythrocyte ghosts (in words)", "setting": "erythrocyte ghosts", "result": "Only a low level of uptake of zinc was observed"},
      {"measurement": "P(O2)50", "setting": "[2]", "result": 9.25, "unit": "mmHg"},
      {"measurement": "binding of zinc to haemoglobin (in words)", "setting": "haemoglobin [3]; 1 mM complex, 20-fold molar proportion of ligand:zinc, NaCl 130 mM, pH 7.4", "result": "the zinc is found to bind tightly to haemoglobin"},
      {"measurement": "binding of zinc to haemoglobin versus ligand (in words)", "setting": "haemoglobin [3]; haemoglobin versus 2-ethyl-3-hydroxy-4-pyrone", "result": "zinc binds more tightly to haemoglobin than to 2-ethyl-3-hydroxy-4-pyrone"},
      {"measurement": "P(O2)50", "setting": "Normal erythrocytes; 2.5 mM ZnSO4 + 25 mM pyrone, Zn:Hb 0.5:1, control 30.0", "result": 23.5, "unit": "mmHg"},
      {"measurement": "P(O2)50", "setting": "Normal erythrocytes; 2.5 mM ZnSO4 + 25 mM pyrone, Zn:Hb 1:1, control 30.0", "result": 17.0, "unit": "mmHg"},
      {"measurement": "P(O2)50", "setting": "Normal erythrocytes; 2.5 mM ZnSO4 + 25 mM pyrone, Zn:Hb 1.5:1, control 30.0", "result": 15.0, "unit": "mmHg"},
      {"measurement": "P(O2)50", "setting": "Normal erythrocytes; 2.5 mM ZnSO4 + 25 mM pyrone, Zn:Hb 2:1, control 26", "result": 15.5, "unit": "mmHg"},
      {"measurement": "P(O2)50", "setting": "Normal erythrocytes; 2.5 mM ZnSO4 + 25 mM pyrone, Zn:Hb 2:1, control 27.5", "result": 15, "unit": "mmHg"},
      {"measurement": "P(O2)50", "setting": "Normal erythrocytes; 2.5 mM ZnSO4 + 25 mM pyrone, Zn:Hb 2:1, control 30.0", "result": 15.0, "unit": "mmHg"},
      {"measurement": "shift in the oxygen dissociation curve (in words)", "setting": "Normal erythrocytes; 2.5 mM ZnSO4, 25 mM pyrone, 1 hour, FIG. 1a", "result": "a significant left shift in the oxygen dissociation curve"},
      {"measurement": "p(O2)50, treated cells", "setting": "Normal erythrocytes; 2.5 mM ZnSO4 and 25 mM pyrone, Zn:Hb 2:1, 1 hour (FIG. 1a), control 27.5", "result": 15.0, "unit": "mm Hg"},
      {"measurement": "p(O2)50 shift", "setting": "Normal erythrocytes; 2.5 mM ZnSO4 and 25 mM pyrone, Zn:Hb 2:1, 1 hour, versus control, normal erythrocytes", "result": 12.5, "unit": "mm Hg"},
      {"measurement": "dose response of shift in the oxygen dissociation curve (in words)", "setting": "Normal erythrocytes; ZnSO4 0.1, 1 and 10 mM with ten times pyrone, 1 hour, FIG. 2", "result": "dose response effect"},
      {"measurement": "shift in the oxygen dissociation curve (in words)", "setting": "Normal erythrocytes; complex 0.1 mM, 1 hour, FIG. 2", "result": "still a discernible left shift in the oxygen dissociation curve"},
      {"measurement": "oxygen affinity (in words)", "setting": "Normal erythrocytes; normal erythrocytes, 2.5 mM zinc, 15 minutes", "result": "increased"},
      {"measurement": "P(O2)50", "setting": "Sickle erythrocytes; 2.5 mM ZnSO4 + 25 mM pyrone, Zn:Hb 2:1, control 36", "result": 18.5, "unit": "mmHg"},
      {"measurement": "shift in the oxygen dissociation curve (in words)", "setting": "Sickle erythrocytes; 2.5 mM ZnSO4, 25 mM pyrone, 1 hour, FIG. 1b", "result": "a significant left shift in the oxygen dissociation curve is produced in both cases but that the difference from the control is more marked for the sickle erythrocytes"},
      {"measurement": "p(O2)50, treated cells", "setting": "Sickle erythrocytes; 2.5 mM ZnSO4 and 25 mM pyrone, Zn:Hb 2:1, 1 hour (FIG. 1b), control 36.0", "result": 18.5, "unit": "mm Hg"},
      {"measurement": "p(O2)50 shift", "setting": "Sickle erythrocytes; 2.5 mM ZnSO4 and 25 mM pyrone, Zn:Hb 2:1, 1 hour, versus control, sickle erythrocytes", "result": 17.5, "unit": "mm Hg"},
      {"measurement": "oxygen affinity (in words)", "setting": "Sickle erythrocytes; sickle erythrocytes, 2.5 mM zinc, 15 minutes", "result": "increased"}
    ]},
    {"smiles": "CC(C)c1occc(=O)c1[O-].CC(C)c1occc(=O)c1[O-].[Zn+2]", "note": "[zinc(II) (3-hydroxy-2-(2'-methylethyl)-4-pyrone)2]", "values": [
      {"measurement": "Distribution ratio (concentration in erythrocytes/concentration in medium)", "setting": "haemoglobin [1]", "result": 550},
      {"measurement": "Percentage of zinc absorbed", "setting": "haemoglobin [1]", "result": 98, "unit": "%"}
    ]},
    {"smiles": "Cc1occc(=O)c1[O-].Cc1occc(=O)c1[O-].[Zn+2]", "note": "[zinc(II) (3-hydroxy-2-methyl--pyrone)2]", "values": [
      {"measurement": "Distribution ratio (concentration in erythrocytes/concentration in medium)", "setting": "haemoglobin [1]", "result": 8},
      {"measurement": "Percentage of zinc absorbed", "setting": "haemoglobin [1]", "result": 54, "unit": "%"}
    ]}
  ]
}
